# PMC6837341, “Evolutionarily conserved susceptibility of the mitochondrial respiratory chain to SDHI pesticides and its consequence on the impact of SDHIs on human cultured cells” (PLoS ONE, 2019)
# Columns and labels:
# [1] = target: T1, glycerol-3-phosphate cytochrome c reductase (G3PDH+CIII) (Homo sapiens, UniProt P00156); experiment: Glycerol-3-phosphate cytochrome c reductase (GCCR) activity, freeze-thawed HEK cells; type: biochemical
# T1 construct: the pellets were permeabilized by two freeze-thaw cycles before enzyme assays; endogenous in cells; host or cells: HEK293, freeze-thawed cell pellets
# Method: (§1) The cells were grown in T75 flasks using 10 ml Dulbecco’s modified Eagle's minimal essential medium (DMEM) either containing 1 or 4.5 g/l glucose, 4 mM glutamine (glutamax; Gibco Thermo Fisher Scientific, MA), 2 mM pyruvate and 200 μM uridine (permissive medium, thereafter referred as GlucoMax) or lacking glucose, pyruvate and uridine but containing 4 mM glutamine (nonpermissive medium, thereafter referred as MitoMax; S1 Table). All media were supplemented with 10% fetal calf serum and 100 U/mL each penicillin and streptomycin. HEK293 human embryonic kidney cells were cultured in DMEM containing 4.5 g/L glucose, 4 mM glutamine, 10% fetal calf serum, 200 μM uridine, 2 mM pyruvate, and 100 U/mL each penicillin and streptomycin [9]. Cell pellets (1,500 g for 5 min) were kept frozen (-80°C), and for biochemical studies, the pellets were permeabilized by two freeze-thaw cycles before enzyme assays.
# (§2) RC enzyme activities were spectrophotometrically measured using a pseudo-double-wavelength spectrophotometer (Cary 60, Agilent). Malonate-sensitive succinate quinone dichlorophenolindophenol (DCPIP) reductase (SQDR), as an indicator of the activity of the isolated SDH enzyme (isolated CII), and glycerol-3-phosphate quinone DCPIP reductase (GQDR), as a measure of the activity of the isolated glycerol-3-phosphate dehydrogenase (G3PDH), were assayed as previously described. To study the effect of SDHIs on the RC, we had to take into consideration the fact that these inhibitors act through binding to quinone-binding sites in the RC. Accordingly, we observed that the extent of the inhibitory effects of these substances varies with the addition of exogenous quinones (Fig 1). […] With this aim, we measured the malonate-sensitive succinate cytochrome c reductase (SDH+CIII), glycerol-3-phosphate cytochrome c reductase (G3PDH+CIII) and antimycin-sensitive quinol cytochrome c reductase (CIII) as previously described.
# (§3) The effects of eight different SDHIs (up to 500 μM; S2 Fig) were determined on four different biological materials. Because IC50 are known to be affected by the actual absolute activity of the tested enzyme, these IC50 were quantified using similar levels of SDH enzyme activity during the assay. IC50 values were determined using the AAT Bioquest IC50 calculator tool (https://www.aatbio.com/tools/ic50-calculator).
# [2] = target: succinate cytochrome c reductase (SDH+CIII) (Homo sapiens, UniProt O14521+P21912+Q99643); experiment: Malonate-sensitive succinate cytochrome c reductase (SCCR) activity, freeze-thawed HEK cells; type: biochemical; parameters: the pellets were permeabilized by two freeze-thaw cycles before enzyme assays; endogenous in cells; host or cells: HEK293, freeze-thawed cell pellets; details: IC50 SCCR, no exogenous quinone, n ≥ 3
# Sequence of succinate cytochrome c reductase (SDH+CIII) (P21912 29-280): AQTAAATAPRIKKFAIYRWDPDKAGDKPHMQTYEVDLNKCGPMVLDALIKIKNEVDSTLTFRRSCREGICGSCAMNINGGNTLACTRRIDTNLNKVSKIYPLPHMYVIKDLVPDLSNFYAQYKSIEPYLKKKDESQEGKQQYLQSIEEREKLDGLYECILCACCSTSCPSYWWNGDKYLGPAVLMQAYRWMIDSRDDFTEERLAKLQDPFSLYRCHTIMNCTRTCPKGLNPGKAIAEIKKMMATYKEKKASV
# Sequence of succinate cytochrome c reductase (SDH+CIII) (Q99643 30-169): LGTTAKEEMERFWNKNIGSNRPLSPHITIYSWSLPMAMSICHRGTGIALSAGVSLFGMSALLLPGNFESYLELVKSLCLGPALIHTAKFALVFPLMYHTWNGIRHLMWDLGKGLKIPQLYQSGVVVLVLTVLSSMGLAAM
# Sequence of succinate cytochrome c reductase (SDH+CIII) (O14521 57-159): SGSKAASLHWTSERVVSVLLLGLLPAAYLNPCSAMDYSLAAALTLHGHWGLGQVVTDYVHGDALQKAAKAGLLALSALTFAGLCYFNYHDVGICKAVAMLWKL
# Sequence of succinate cytochrome c reductase (SDH+CIII) (P31040 43-664 partner): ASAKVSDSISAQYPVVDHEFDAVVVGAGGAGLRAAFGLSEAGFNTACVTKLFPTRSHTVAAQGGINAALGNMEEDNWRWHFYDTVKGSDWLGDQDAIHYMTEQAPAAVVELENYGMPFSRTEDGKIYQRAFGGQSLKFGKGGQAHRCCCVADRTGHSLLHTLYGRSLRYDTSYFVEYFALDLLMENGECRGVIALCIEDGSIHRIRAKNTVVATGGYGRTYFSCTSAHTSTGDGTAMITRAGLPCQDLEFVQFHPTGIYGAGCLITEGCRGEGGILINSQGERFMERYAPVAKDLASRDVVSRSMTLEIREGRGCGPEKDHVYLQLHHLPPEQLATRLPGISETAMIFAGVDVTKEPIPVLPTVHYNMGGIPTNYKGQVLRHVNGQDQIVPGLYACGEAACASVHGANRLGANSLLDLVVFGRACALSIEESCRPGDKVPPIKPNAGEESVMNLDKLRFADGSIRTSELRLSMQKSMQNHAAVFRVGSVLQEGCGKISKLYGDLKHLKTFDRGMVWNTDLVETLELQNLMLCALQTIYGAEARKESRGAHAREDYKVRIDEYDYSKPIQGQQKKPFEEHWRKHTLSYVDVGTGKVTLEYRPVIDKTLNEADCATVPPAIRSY
# Method: as §1, §2, §3
# [3] = target: T2, quinol cytochrome c reductase (CIII) (Homo sapiens, UniProt P00156); experiment: Antimycin-sensitive quinol cytochrome c reductase (QCCR) activity, freeze-thawed HEK cells; type: biochemical
# T2 construct: the pellets were permeabilized by two freeze-thaw cycles before enzyme assays; endogenous in cells; host or cells: HEK293, freeze-thawed cell pellets
# Method: as §1, §2, §3
# [4] = according to European regulations; ref European regulations; cited from earlier work
smiles,measurement,setting,value
"O=C(NCCc1ncc(C(F)(F)F)cc1Cl)c1ccccc1C(F)(F)F [Fluopyram, fluopyram]",IC50,[1],> 500 µM
same,IC50,[2],160 µM
same,IC50,[3],> 500 µM
same,ADI (Acceptable Daily Intake),[4],0.012 mg/kg/day
